# Values quoted from earlier work as cited in patent US20140271726A1, “COMPOSITIONS AND METHODS FOR […] SUSCEPTIBILITY TO ANTIVIRAL AGENTS” (WISCONSIN ALUMNI RESEARCH FOUNDATION, priority 2013, published 2014).
# Test system: HCV genotype 3
# Conditions: genotype 3 patient, short duration monotherapy
compound,measurement,value
C/C=C/C[C@@H](C)[C@@H](O)[C@H]1C(=O)N[C@@H](CC)C(=O)N(C)[C@H](C)C(=O)N(CC)[C@@H](C(C)C)C(=O)N[C@@H](C(C)C)C(=O)N(C)[C@@H](CC(C)C)C(=O)N[C@@H](C)C(=O)N[C@H](C)C(=O)N(C)[C@@H](CC(C)C)C(=O)N(C)[C@@H](CC(C)C)C(=O)N(C)[C@@H](C(C)C)C(=O)N1C [alisprovir],clinical outcome,cured
